Measurements reported in ChEMBL document CHEMBL4831477, “Structure-Enabled Discovery of Novel Macrocyclic Inhibitors Targeting Glutaminase 1 Allosteric Binding Site” (J Med Chem, 2021).
Converted amounts (≈) assume the structure as drawn.

How the values were obtained:
[1] = molecular target: T1, Glutaminase kidney isoform, mitochondrial (Homo sapiens, UniProt O94925); assay: Inhibition of recombinant human GLS1 expressed in Escherichia coli strain BL21 (DE3) preincubated for 10 mins before glutamine addition and measured after 60 mins by bovine liver glutamate dehydrogenase based coupled enzyme assay
T1 sequence (O94925 whole entry): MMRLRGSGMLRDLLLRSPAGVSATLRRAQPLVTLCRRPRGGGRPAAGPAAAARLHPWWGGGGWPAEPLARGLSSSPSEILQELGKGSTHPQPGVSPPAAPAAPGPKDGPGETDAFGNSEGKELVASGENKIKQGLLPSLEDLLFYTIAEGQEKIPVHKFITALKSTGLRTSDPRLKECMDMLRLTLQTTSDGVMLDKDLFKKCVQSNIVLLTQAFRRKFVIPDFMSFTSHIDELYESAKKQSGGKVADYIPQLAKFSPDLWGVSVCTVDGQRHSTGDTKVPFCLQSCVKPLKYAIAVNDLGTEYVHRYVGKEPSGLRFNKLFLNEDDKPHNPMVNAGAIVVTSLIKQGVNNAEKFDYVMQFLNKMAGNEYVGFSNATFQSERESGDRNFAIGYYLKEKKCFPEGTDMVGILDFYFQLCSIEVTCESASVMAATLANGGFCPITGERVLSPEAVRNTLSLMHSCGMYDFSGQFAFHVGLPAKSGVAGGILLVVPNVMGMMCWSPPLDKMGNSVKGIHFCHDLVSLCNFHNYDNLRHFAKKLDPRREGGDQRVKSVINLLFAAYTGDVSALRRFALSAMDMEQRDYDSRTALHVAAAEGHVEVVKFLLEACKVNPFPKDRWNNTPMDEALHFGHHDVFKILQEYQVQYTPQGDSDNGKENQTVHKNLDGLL

[2] = tested on: HCT-116; assay: Antiproliferative activity against human HCT116 cells assessed as reduction in cell viability incubated for 72 hrs by MTT assay; type: functional, cell-based; conditions: HCT-116, 72 h
[3] = tested on: MDA-MB-436; assay: Antiproliferative activity against human MDA-MB-436 cells assessed as reduction in cell viability incubated for 72 hrs by MTT assay; type: functional, cell-based; conditions: MDA-MB-436, 72 h
[4] = tested on: HCT-116; assay: Inhibition of colony formation in human HCT-116 cells incubated for 14 days by crystal violet staining based assay; type: functional, cell-based; conditions: dose 0.1-2 µM, time 14.0 day
[5] = Distribution coefficient, logD of the compound at pH 7.4 by LC-MS based shake-flask method; type: physicochemical; conditions: octanol/water, read-out: logD
[6] = Intrinsic aqueous solubility of compound at pH 7.4 by LC-MS based shake-flask method; type: physicochemical; conditions: read-out: Intrinsic_solubility
[7] = molecular target: T2, Glutaminase kidney isoform, mitochondrial (Homo sapiens) (UniProt O94925)
T2 sequence (whole entry): T1 sequence (O94925 whole entry)
Description: Binding affinity to human GLS1 expressed in Escherichia coli strain BL21 (DE3) assessed as change in melting temperature by SYPRO orange dye based protein thermal shift assay

| SMILES | IC50 [1] | IC50 [2] | IC50 [3] | inhibition [4] | logD [5] | solubility thermodynamic [6] | ΔTm [7] |
| --- | --- | --- | --- | --- | --- | --- | --- |
| O=C1Cc2cccc(c2)OC/C=C/COc2cccc(c2)CC(=O)NC2=NN=C(CCCCC3=NN=C(N1)S3)S2 | 41 nM | 280 nM | 510 nM | Dose-Dependent Effect | 2.9 | 0.34 µg/mL (≈ 0.59 µM) | 16.5 °C |
| O=C1Cc2ccccc2OCCCC/C=C/CCCCOc2cccc(c2)CC(=O)Nc2nnc(s2)CCCCc2ccc(nn2)N1 | 37 nM | 380 nM | 710 nM |  | 3.72 | 1.09 µg/mL (≈ 1.66 µM) | 17.7 °C |
| O=C1Cc2ccc(cc2)OCCCC/C=C/CCCCOc2ccc(cc2)CC(=O)Nc2nnc(s2)CCCCc2nnc(s2)N1 | 193 nM | 1480 nM | 2510 nM |  | 3.91 | 0.25 µg/mL (≈ 0.378 µM) | 12.9 °C |
| O=C1Cc2ccc(cc2)OCC/C=C/CCOc2ccc(cc2)CC(=O)Nc2nnc(s2)CCCCc2nnc(s2)N1 | 80 nM | 960 nM | 1900 nM | Dose-Dependent Effect | 3.52 | 0.33 µg/mL (≈ 0.546 µM) | 13.9 °C |
| C=CCCOc1cccc(CC(=O)Nc2ccc(CCCCc3nnc(NC(=O)Cc4cccc(OCCC=C)c4)s3)nn2)c1 | 68 nM |  |  |  |  |  |  |
| O=C1Cc2cccc(c2)OCCC/C=C/CCCOc2cccc(c2)CC(=O)Nc2nnc(s2)CCCCc2ccc(nn2)N1 | 28 nM | 190 nM | 570 nM | Dose-Dependent Effect | 3.48 | 1.62 µg/mL (≈ 2.58 µM) | 18.3 °C |
| O=C1CC/C=C/CCC(=O)Nc2cccc(c2)CC(=O)Nc2nnc(s2)CCCCc2ccc(nn2)NC(=O)Cc2cccc(c2)N1 | 75 nM | 520 nM | 840 nM | Dose-Dependent Effect | 2.53 | 2.34 µg/mL (≈ 3.58 µM) | 15.9 °C |
| O=C1Cc2ccc(cc2)OCCC/C=C/CCCOc2ccc(cc2)CC(=O)Nc2nnc(s2)CCCCc2nnc(s2)N1 | 4700 nM | 16200 nM | 38300 nM |  | 3.62 | 0.29 µg/mL (≈ 0.458 µM) | 0.19 °C |
| O=C1CCCC/C=C/CCCCOc2cccc(c2)CCC(=O)Nc2nnc(s2)CCCCc2ccc(nn2)N1 | 123 nM | 680 nM | 1820 nM |  | 3.89 | 1.97 µg/mL (≈ 3.5 µM) | 16.3 °C |
